# Like-named read-outs stand apart in the source and are kept apart here.
# Experiments:
# [1] = Presence or absence of pyrrolizidine alkaloid signals (UPLC-HRMS) in doped lemon, orange and eucalyptus essential oils after hydrodistillation; assay type: physicochemical; conditions: for profils UPLC-MS ciblés: presence in huile essentielle avec standards et distillée: huile essentielle de citron, likewise essences d'orange et d'eucalyptus (figure 1, figure 2); for signaux dans la phase organique recueillie après hydrodistillation: huiles essentielles de citron, d'orange et d'eucalyptus dopées jusqu'à 100 ppm, 2 h hydrodistillation, UPLC-HRMS/TOF
# Method: (§1) Dans un ballon de 500 mL, on introduit 300 mL d'eau distillée, un barreau magnétique, quelques pierres ponces et une quantité pesée d'échantillon entre 15 et 30 g.
# (§2) Le ballon est alors raccordé à un appareil de type Clevenger et placé dans un bain d'huile chauffant.
# (§3) On ajoute 10 mL d'eau distillée et 4 à 5 mL de pentane afin de remplir le séparateur.
# (§4) On ouvre l'arrivée d'eau pour le réfrigérant et on porte à reflux pendant deux heures.
# (§5) On arrête alors le chauffage et on laisse décanter. La phase organique et la phase aqueuse décantent dans le séparateur et sont recueillies.
# (§6) […]. Conditions HR-TOF-MS : Les analyses ont été effectuées sur un système Waters XEVO G2 TOF. Conditions de source ESI : tension capillaire : 0,5 kV, tension de cône : 45 V, cône d'extraction : 4 V, température de source : 120 °C, température de désolvatation : 400 °C, débit de gaz : 10 L/h, débit de gaz de désolvatation : 1200 L/h. Les analyses ont été effectuées en mode positif. Le spectromètre de masse a été étalonné avec du formiate de sodium pour une gamme de masse allant de 50 à 1200 Da. La Leucine-Enképhaline (lockmass) est le standard utilisé pour corriger les masses. Les deux masses caractéristiques de la Leucine-Enképhaline ont été vérifiées (278,1141; 556,2771). Les acquisitions ont été réalisées en mode MSE en utilisant l'argon comme gaz de collision. Fragmentation : Le mode MSE permet l'acquisition simultanée de spectres de masse à l'énergie de collision faible et élevée, le premier permettant d'obtenir un ion parent, le dernier de produire des ions fragments.
# (§7) Après dilution des extraits d'huile essentielle dans du méthanol, les alcaloïdes pyrrolizidiniques sont chromatographiés par système RP-UPLC, en mode gradient d'élution, détectés et identifiés par spectrométrie de masse et quantifiés par une méthode d'étalonnage externe.
# (§8) Dans une fiole jaugée de 20 mL, on pèse exactement 1 g (Pe) de l'échantillon et on ajuste avec du méthanol. La solution est homogénéisée pendant 3 min avec un bain à ultrasons, puis filtrée à l'aide d'une seringue sur un filtre en PTFE de 0,25 µm, puis transférée dans un flacon d'injection.
# Afin de démontrer le principe de l'invention, une étude quantitative destinée à montrer la présence ou l'absence d'alcaloïdes pyrrolizidiniques dans des échantillons d'huile essentielle enrichis en alcaloïdes pyrrolizidiniques a été réalisée avant et après hydrodistillation.
# Dans cette étude, on a utilisé des alcaloïdes pyrrolizidiniques disponibles commercialement et représentant deux classes précédemment décrites de type II et IV, à savoir : alcaloïde type cyclique (classe la plus représentée) pour la sénécionine, sénécionine-N-oxyde [13268-67-2], rétrorsine, rétrorsine-N-oxyde [15503-86-3], jacobine [3870-67-3], jacobine-N-oxyde [38710-25-7], sénéciphylline, sénéciphylline-N-oxyde [38710-26-8], et alcaloïde type mono-ester pour la lycopsamine [10285-07-1], lycopsamine-N-oxyde [95462-15-0], intermédine [10285-06-0], intermédine-N-oxyde [95462-14-9].
# (§9) Trois huiles essentielles de citron, d'orange et d'eucalyptus, dopées jusqu'à 100 ppm de chacun des alcaloïdes pyrrolizidiniques et de leurs oxydes respectifs, ont été hydrodistillées séparément pendant deux heures selon le protocole décrit à l'exemple 1. L'expérimentation est réalisée en duplicat.
# (§10) Avant et après hydrodistillation, les phases organique et aqueuse sont séparées et injectées en UPLC-HRMS/TOF.
# [2] = Hydrodistillation of lemon essential oil doped with pyrrolizidine alkaloids; alkaloids assayed in distillate and aqueous phase by UPLC-HRMS/TOF; assay type: physicochemical; conditions: for φ Aqueuse (résidu de distillation) CT [ppm]: Concentration théorique; for φ Aqueuse (résidu de distillation) C [ppm] / φ Organique (distillat) C [ppm]: after 2 h hydrodistillation; for φ Organique (distillat) C [ppm]: LOQ : 2 ppb
# Method: as §1, §2, §3, §4, §5, §6, §7
# Des solutions standards d'alcaloïdes pyrrolizidiniques sont préparées comme suit : Dans une fiole jaugée de 100 mL (Vf), on pèse exactement 10 mg (Ms) des substances étalons et on ajuste avec du méthanol. Les solutions sont homogénéisées avec un bain à ultrasons pendant 3 min.
# La concentration de la solution standard est donnée par l'équation suivante : C (mg/mL) = (Ms×Pu)/(100×Vf) [formula] • Ms = Poids de la substance standard • Pu = Pureté de la substance étalon en pourcentage
# Ensuite, cette solution mère est diluée jusqu'à obtenir les concentrations appropriées pour la sensibilité du détecteur.
# as §8
# Si nécessaire, cette solution doit être successivement diluée pour tomber dans une plage de linéarité appropriée du détecteur.
# as §9, §10
# rat = conditions: cited from earlier work
# [3] = Tableau 3, Huile essentielle de Citron dopée, (duplicate 2)
# [4] = Tableau 3, Huile essentielle de Citron dopée, duplicate 1
# [5] = Tableau 4, Huile essentielle de Citron dopée (as titled), (duplicate 2)
# [6] = Tableau 4, Huile essentielle de Citron dopée (as titled), duplicate 1
# [7] = administrés régulièrement par voie orale
smiles,measurement,setting,value
CC(C)[C@](O)(C(=O)OCC1=CCN2CC[C@@H](O)[C@@H]12)[C@@H](C)O (stereo in doubt) [Lycopsamine],profils UPLC-MS ciblés: presence in huile essentielle avec standards et distillée,[1],absentes
same,signaux dans la phase organique recueillie après hydrodistillation,[1],absence des signaux
same,φ Aqueuse (résidu de distillation) CT [ppm],[2]; [3],"0,626 ppm"
same,φ Aqueuse (résidu de distillation) CT [ppm],[2]; [4],"0,656 ppm"
same,φ Aqueuse (résidu de distillation) C [ppm],[2]; [3],"0,698 ppm"
same,φ Organique (distillat) C [ppm],[2]; [3],< LoQ
same,φ Aqueuse (résidu de distillation) C [ppm],[2]; [4],"0,678 ppm"
same,φ Organique (distillat) C [ppm],[2]; [4],< LoQ
same,φ Aqueuse (résidu de distillation) CT [ppm],[2]; [5],0.597 ppm
same,φ Aqueuse (résidu de distillation) CT [ppm],[2]; [6],0.550 ppm
same,φ Aqueuse (résidu de distillation) C [ppm],[2]; [5],0.621 ppm
same,φ Organique (distillat) C [ppm],[2]; [5],< LoQ
same,φ Aqueuse (résidu de distillation) C [ppm],[2]; [6],0.588 ppm
same,φ Organique (distillat) C [ppm],[2]; [6],< LoQ
CC(C)[C@@](O)(C(=O)OCC1=CC[N+]2([O-])CC[C@@H](O)[C@@H]12)[C@H](C)O (stereo partly drawn) [Lycopsamine-N-oxyde],signaux dans la phase organique recueillie après hydrodistillation,[1],absence des signaux
same,φ Aqueuse (résidu de distillation) CT [ppm],[2]; [5],0.030 ppm
same,φ Aqueuse (résidu de distillation) CT [ppm],[2]; [6],0.028 ppm
same,φ Aqueuse (résidu de distillation) C [ppm],[2]; [5],0.027 ppm
same,φ Organique (distillat) C [ppm],[2]; [5],< LoQ
same,φ Aqueuse (résidu de distillation) C [ppm],[2]; [6],0.024 ppm
same,φ Organique (distillat) C [ppm],[2]; [6],< LoQ
C/C=C1/C[C@@H](C)[C@](O)(CO)C(=O)OCC2=CC[N@@+]3([O-])CC[C@@H](OC1=O)[C@@H]23 [Rétrorsine-N-oxyde],profils UPLC-MS ciblés: presence in huile essentielle avec standards et distillée,[1],absentes
same,signaux dans la phase organique recueillie après hydrodistillation,[1],absence des signaux
same,φ Aqueuse (résidu de distillation) CT [ppm],[2]; [3],"0,621 ppm"
same,φ Aqueuse (résidu de distillation) CT [ppm],[2]; [4],"0,662 ppm"
same,φ Aqueuse (résidu de distillation) C [ppm],[2]; [3],"0,605 ppm"
same,φ Organique (distillat) C [ppm],[2]; [3],< LoQ
same,φ Aqueuse (résidu de distillation) C [ppm],[2]; [4],"0,691 ppm"
same,φ Organique (distillat) C [ppm],[2]; [4],< LoQ
same,φ Aqueuse (résidu de distillation) CT [ppm],[2]; [5],0.593 ppm
same,φ Aqueuse (résidu de distillation) CT [ppm],[2]; [6],0.457 ppm
same,φ Aqueuse (résidu de distillation) C [ppm],[2]; [5],0.612 ppm
same,φ Organique (distillat) C [ppm],[2]; [5],< LoQ
same,φ Aqueuse (résidu de distillation) C [ppm],[2]; [6],0.678 ppm
same,φ Organique (distillat) C [ppm],[2]; [6],< LoQ
C/C=C1\C[C@@H](C)[C@](O)(CO)C(=O)OCC2=CCN3CC[C@@H](OC1=O)[C@@H]23 [Rétrorsine],tumeurs hépatiques,rat; [7],provoquer des tumeurs hépatiques
same,profils UPLC-MS ciblés: presence in huile essentielle avec standards et distillée,[1],absentes
same,signaux dans la phase organique recueillie après hydrodistillation,[1],absence des signaux
same,φ Aqueuse (résidu de distillation) CT [ppm],[2]; [3],"0,868 ppm"
same,φ Aqueuse (résidu de distillation) CT [ppm],[2]; [4],"0,806 ppm"
same,φ Aqueuse (résidu de distillation) C [ppm],[2]; [3],"0,839 ppm"
same,φ Organique (distillat) C [ppm],[2]; [3],< LoQ
same,φ Aqueuse (résidu de distillation) C [ppm],[2]; [4],"0,810 ppm"
same,φ Organique (distillat) C [ppm],[2]; [4],< LoQ
same,φ Aqueuse (résidu de distillation) CT [ppm],[2]; [5],0.828 ppm
same,φ Aqueuse (résidu de distillation) CT [ppm],[2]; [6],0.797 ppm
same,φ Aqueuse (résidu de distillation) C [ppm],[2]; [5],0.711 ppm
same,φ Organique (distillat) C [ppm],[2]; [5],< LoQ
same,φ Aqueuse (résidu de distillation) C [ppm],[2]; [6],0.663 ppm
same,φ Organique (distillat) C [ppm],[2]; [6],< LoQ
CC(C)[C@@](O)(C(=O)OCC1=CC[N+]2([O-])CC[C@@H](O)[C@@H]12)[C@@H](C)O (stereo partly drawn) [intermédine-N-oxyde],signaux dans la phase organique recueillie après hydrodistillation,[1],absence des signaux
C[C@@H]1C[C@@]2(O[C@H]2C)C(=O)O[C@@H]2CC[N+]3([O-])CC=C(COC(=O)[C@]1(C)O)[C@H]23 (stereo partly drawn) [jacobine-N-oxyde],signaux dans la phase organique recueillie après hydrodistillation,[1],absence des signaux
C[C@@H]1C[C@@]2(O[C@H]2C)C(=O)O[C@@H]2CCN3CC=C(COC(=O)[C@]1(C)O)[C@H]23 [jacobine],signaux dans la phase organique recueillie après hydrodistillation,[1],absence des signaux
C[C@H]1C(=O)O[C@@H]2CCN3CC=C(COC(=O)[C@](C)(O)[C@]1(C)O)[C@H]23 [monocrotaline],tumeurs hépatiques,rat; in vivo,provoquer des tumeurs hépatiques
C/C=C1/C[C@@H](C)[C@@](C)(O)C(=O)OC/C2=C/CN(C)CC[C@@H](OC1=O)C2=O [senkirkine],tumeurs hépatiques,rat; [7],provoquer des tumeurs hépatiques
C/C=C(\C)C(=O)O[C@@H]1CCN2CC=C(COC(=O)[C@](O)(C(C)C)[C@H](C)O)[C@H]12 [symphytine],tumeurs hépatiques,rat; [7],provoquer des tumeurs hépatiques
"C=C1C/C(=C/C)C(=O)O[C@@H]2CCN3CC=C(COC(=O)[C@]1(C)O)[C@H]23 [séneciphylline, sénéciphylline]",signaux dans la phase organique recueillie après hydrodistillation,[1],absence des signaux
"C=C1C/C(=C/C)C(=O)O[C@@H]2CC[N+]3([O-])CC=C(COC(=O)[C@]1(C)O)[C@H]23 (stereo partly drawn) [séneciphylline-N-oxyde, sénéciphylline-N-oxyde]",signaux dans la phase organique recueillie après hydrodistillation,[1],absence des signaux
C/C=C1/C[C@@H](C)[C@@](C)(O)C(=O)OCC2=CC[N+]3([O-])CC[C@@H](OC1=O)[C@@H]23 (stereo partly drawn) [sénécionine-N-oxyde],signaux dans la phase organique recueillie après hydrodistillation,[1],absence des signaux
C/C=C1/C[C@@H](C)[C@@](C)(O)C(=O)OCC2=CCN3CC[C@@H](OC1=O)[C@@H]23 [sénécionine],signaux dans la phase organique recueillie après hydrodistillation,[1],absence des signaux

# Reference: patent publication EP3922633B1, “METHOD FOR EXTRACTING PYRROLIZIDINE ALKALOIDS” (priority 2020, dated 2021)
